Data published in patent EP4631940A1, “COMPOUND TARGETING PAN-KRAS PROTEIN DEGRADATION AGENT AND USE THEREOF” (Betta Pharmaceuticals Co., Ltd., priority 2022, dated 2024).

Assays:
AGS = assay: Cell proliferation experiment (CellTiter-Glo); assay type: cell-based; conditions: Homo sapiens, AGS, 96 h, read-out: IC50(nM) AGS
SW620 = assay: Cell proliferation experiment (CellTiter-Glo); assay type: cell-based; conditions: Homo sapiens, SW-620, 96 h, read-out: IC50(nM) SW620
KRAS G12D [1] = target: T1, KRAS G12D (Homo sapiens, UniProt P01116, G12D)
T1 sequence (P01116 1-188 isoform P01116-2 G12D): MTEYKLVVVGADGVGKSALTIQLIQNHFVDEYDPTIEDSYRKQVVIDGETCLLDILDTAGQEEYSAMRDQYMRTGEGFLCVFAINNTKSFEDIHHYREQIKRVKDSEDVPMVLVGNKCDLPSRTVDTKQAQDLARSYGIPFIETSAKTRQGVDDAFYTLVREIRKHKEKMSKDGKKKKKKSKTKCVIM

KRAS G12D [2] = target: T1, KRAS G12D; assay: cell-based; conditions: AGS
in vitro [3] = conditions: human, microsomes
in vitro [4] = conditions: rat, microsomes
in vitro [5] = conditions: mouse, microsomes
in vitro [6] = conditions: dog, microsomes

Row | SMILES | IC50 (AGS) | IC50 (SW620) | DC50 (KRAS G12D [1]) | Dmax (KRAS G12D [2]) | microsomal CLint (in vitro [3]) | microsomal CLint (in vitro [4]) | microsomal CLint (in vitro [5]) | microsomal CLint (in vitro [6])
1 | C=C1CN2[C@H](COC(=O)N3CCC4(CC3)CC(CNC(=O)C[C@H](NC(=O)[C@@H]3C[C@@H](O)CN3C(=O)C(c3cc(C)no3)C(C)C)c3ccc(-c5scnc5C)cc3)C4)CC[C@@]2(COc2nc(N3CCC[C@@](C)(O)C3)c3cnc(-c4cc(O)cc5ccc(F)c(CC)c45)c(F)c3n2)C1 (single isomer, unassigned) [Compound 139] | 84 nM | 2040 nM | 31 nM | 95% | – | – | – | –
2 | CCc1c(F)ccc2cc(O)cc(-c3ncc4c(N5CCC[C@@](C)(O)C5)nc(OCCN5CCC(COc6ccc(-c7cn([C@H](C(=O)N8C[C@H](O)C[C@H]8C(=O)N[C@@H](C)c8ccc(-c9scnc9C)cc8)C(C)C)nn7)cc6)CC5)nc4c3F)c12 [Compound 67] | 40 nM | 1720 nM | 22 nM | 78% | – | – | – | –
3 | CCc1c(F)ccc2cc(O)cc(-c3ncc4c(N5CCC[C@@](C)(O)C5)nc(OCC5(CN6CCC(CN7CCN(c8cc([C@H](C(=O)N9C[C@H](O)C[C@H]9C(=O)N[C@@H](C)c9ccc(-c%10scnc%10C)cc9)C(C)C)on8)CC7)CC6)CC5)nc4c3F)c12 [Compound 104] | 39 nM | – | 27 nM | 95% | – | – | – | –
4 | CCc1c(F)ccc2cc(O)cc(-c3ncc4c(N5CCC[C@@](C)(O)C5)nc(OCC5(CN6CCN(c7cc([C@H](C(=O)N8C[C@H](O)C[C@H]8C(=O)N[C@@H](C)c8ccc(-c9scnc9C)cc8)C(C)C)on7)CC6)CC5)nc4c3F)c12 [Compound 112] | 57 nM | – | 5 nM | 95% | – | – | – | –
5 | CCc1c(F)ccc2cc(O)cc(-c3ncc4c(N5CCC[C@@](C)(O)C5)nc(OCC5(CN6C[C@@H]7CN(c8cc([C@H](C(=O)N9C[C@H](O)C[C@H]9C(=O)N[C@@H](C)c9ccc(-c%10scnc%10C)cc9)C(C)C)on8)C[C@@H]7C6)CC5)nc4c3F)c12 [Compound 113] | 8.3 nM | 49 nM | 9.3 nM | 95% | – | – | – | –
6 | CCc1c(F)ccc2cc(O)cc(-c3ncc4c(N5CCC[C@@](C)(O)C5)nc(OCC5(CN6CC(N7CCN(c8cc([C@H](C(=O)N9C[C@H](O)C[C@H]9C(=O)N[C@@H](C)c9ccc(-c%10scnc%10C)cc9)C(C)C)on8)CC7)C6)CC5)nc4c3F)c12 [Compound 116] | 27 nM | – | 30 nM | 95% | – | – | – | –
7 | CCc1c(F)ccc2cc(O)cc(-c3ncc4c(N5CCC[C@@](C)(O)C5)nc(OCC5(CN6CCC(c7ccc(-c8cn([C@H](C(=O)N9C[C@H](O)C[C@H]9C(=O)N[C@@H](C)c9ccc(-c%10scnc%10C)cc9)C(C)(C)C)nn8)cc7)CC6)CC5)nc4c3F)c12 [Compound 119] | 37 nM | – | – | – | 6.1 µL/min/mg | 9.1 µL/min/mg | 10.4 µL/min/mg | 14.9 µL/min/mg
8 | C=C1CN2[C@H](COc3cc(-c4cn([C@H](C(=O)N5C[C@H](O)C[C@H]5C(=O)N[C@@H](C)c5ccc(-c6scnc6C)cc5)C(C)C)nn4)ccn3)CC[C@@]2(COc2nc(N3CCC[C@@](C)(O)C3)c3cnc(-c4cc(O)cc5ccc(F)c(CC)c45)c(F)c3n2)C1 [Compound 121] | 40 nM | – | 30 nM | 95% | – | – | – | –
9 | CCc1c(F)ccc2cc(O)cc(-c3ncc4c(N5CCC[C@@](C)(O)C5)nc(OCC5(CN6CCC(c7cn([C@H](C(=O)N8C[C@H](O)C[C@H]8C(=O)N[C@@H](C)c8ccc(-c9scnc9C)cc8)C(C)C)nn7)CC6)CC5)nc4c3F)c12 [Compound 131, (2S,4R)-1-((S)-2-(4-(1-((((7-(8-ethyl-7-fluoro-3-hydroxynaphthalen-1-yl)-8-fluoro-4-((R)-3-hydroxy-3-methylpiperidin-1-yl)pyrido[4,3-d]pyrimidin-2-yl)oxy)methyl)cyclopropyl)methyl)piperidin-4-yl)-1H-1,2,3-triazol-1-yl)-3-methylbutanoyl)-4-hydroxy-N-(((S)-1-(4-(4-methylthiazol-5-yl)phenyl)ethyl)pyrrolidine-2-carboxamide] | 34 nM | – | 18 nM | 95% | – | – | – | –
10 | CCc1c(F)ccc2cc(O)cc(-c3ncc4c(N5CCC[C@@](C)(O)C5)nc(OCC5(CN6CCN(Cc7cn([C@H](C(=O)N8C[C@H](O)C[C@H]8C(=O)N[C@@H](C)c8ccc(-c9scnc9C)cc8)C(C)C)nn7)CC6)CC5)nc4c3F)c12 [Compound 132] | 25 nM | – | 19 nM | 95% | – | – | – | –
11 | CCc1c(F)ccc2cc(O)cc(-c3ncc4c(N5CCC[C@@](C)(O)C5)nc(OCC5(CN6CCC(N7CCC(c8cn([C@H](C(=O)N9C[C@H](O)C[C@H]9C(=O)N[C@@H](C)c9ccc(-c%10scnc%10C)cc9)C(C)C)nn8)CC7)CC6)CC5)nc4c3F)c12 [Compound 137] | 37 nM | – | 37 nM | 95% | – | – | – | –
12 | CCc1c(F)ccc2cc(O)cc(-c3ncc4c(N5CCC[C@@](C)(O)C5)nc(OCC5(CN6CCN(CC78CC(c9cn([C@H](C(=O)N%10C[C@H](O)C[C@H]%10C(=O)N[C@@H](C)c%10ccc(-c%11scnc%11C)cc%10)C(C)C)nn9)(C7)C8)CC6)CC5)nc4c3F)c12 [Compound 148] | 15 nM | – | 13 nM | 95% | – | – | – | –
13 | CCc1c(F)ccc2cc(O)cc(-c3ncc4c(N5CCC[C@@](C)(O)C5)nc(OCC5(CN6CCC7(CC6)CC(Oc6cc([C@H](C(=O)N8C[C@H](O)C[C@H]8C(=O)N[C@@H](C)c8ccc(-c9scnc9C)cc8)C(C)C)on6)C7)CC5)nc4c3F)c12 [Compound 150] | 11 nM | – | 14 nM | 95% | – | – | – | –
14 | CCc1c(F)ccc2cc(O)cc(-c3ncc4c(N5CCC[C@@](C)(O)C5)nc(OCC5(CN6CCC(Nc7ccc(-c8cn([C@H](C(=O)N9C[C@H](O)C[C@H]9C(=O)N[C@@H](C)c9ccc(-c%10scnc%10C)cc9)C(C)C)nn8)cn7)CC6)CC5)nc4c3F)c12 [Compound 152] | 30 nM | – | 27 nM | 95% | – | – | – | –
15 | CCc1c(F)ccc2cc(O)cc(-c3ncc4c(N5CCC[C@@](C)(O)C5)nc(OCC5(CN6CCC(N(C)c7ccc(-c8cn([C@H](C(=O)N9C[C@H](O)C[C@H]9C(=O)N[C@@H](C)c9ccc(-c%10scnc%10C)cc9)C(C)C)nn8)cn7)CC6)CC5)nc4c3F)c12 [Compound 154] | 13 nM | – | 5.5 nM | 95% | – | – | – | –
16 | CCc1c(F)ccc2cc(O)cc(-c3ncc4c(N5CCC[C@@](C)(O)C5)nc(OCC5(CN6CCC7(CC6)CCN(c6cc([C@H](C(=O)N8C[C@H](O)C[C@H]8C(=O)N[C@@H](C)c8ccc(-c9scnc9C)cc8)C(C)C)on6)CC7)CC5)nc4c3F)c12 [Compound 155, (2S,4R)-1-((R)-2-(3-(9-((1-((7-(8-ethyl-7-fluoro-3-hydroxynaphthalen-1-yl)-8-fluoro-4-((R)-3-hydroxy-3-methylpiperidin-1-yl)pyrido[4,3-d]pyrimidin-2-yl)oxy)methyl)cyclopropyl)methyl)-3,9-diazaspiro[5.5]nonan-3-yl)isoxazol-5-yl)-3-methylbutanoyl)-4-hydroxy-N-((S)-1-(4-(4-(4-methylthiazol-5-yl)phenyl)ethyl)pyrrolidine-2-carboxamide] | 23 nM | – | 8.7 nM | 95% | – | – | – | –
17 | CCc1c(F)ccc2cc(O)cc(-c3ncc4c(N5CCC[C@@](C)(O)C5)nc(OCC5(CN6CCN(C7CN(c8cc([C@H](C(=O)N9C[C@H](O)C[C@H]9C(=O)N[C@@H](C)c9ccc(-c%10scnc%10C)cc9)C(C)C)on8)C7)CC6)CC5)nc4c3F)c12 [Compound 156] | 9.6 nM | – | 9.6 nM | 95% | – | – | – | –
18 | CCc1c(F)ccc2cc(O)cc(-c3ncc4c(N5CCC[C@@](C)(O)C5)nc(OC[C@]56CCCN5[C@@H](COc5ccc(-c7cn([C@H](C(=O)N8C[C@H](O)C[C@H]8C(=O)N[C@@H](C)c8ccc(-c9scnc9C)cc8)C(C)C)nn7)cn5)CC6)nc4c3F)c12 [Compound 157] | 19 nM | – | 7.7 nM | 95% | – | – | – | –
19 | CCc1c(F)ccc2cc(O)cc(-c3ncc4c(N5CCC[C@@](C)(O)C5)nc(OC[C@]56CCCN5[C@@H](COc5ncc(-c7cn([C@H](C(=O)N8C[C@H](O)C[C@H]8C(=O)N[C@@H](C)c8ccc(-c9scnc9C)cc8)C(C)C)nn7)cn5)CC6)nc4c3F)c12 [Compound 158, (2S,4R)-1-((S)-2-(4-(2-(((3R,7aR)-7a-(((7-(8-ethyl-7-fluoro-3-hydroxynaphthalen-1-yl)-8-fluoro-4-((R)-3-hydroxy-3-methylpiperidin-1-yl)pyrido[4,3-d]pyrimidin-2-yl)oxy)methyl)cyclopropyl)hexahydro-1H-pyrrolizin-3-yl)methoxy)pyrimidin-5-yl)-1H-1,2,3-triazol-1-yl)-3-methylbutanoyl)-4-hydroxy-N-(((S)-1-(4-(4-methylthiazol-5-yl)phenyl)ethyl)pyrrolidine-2-carboxamide] | 18 nM | – | 4.1 nM | 95% | – | – | – | –
20 | CCc1c(F)ccc2cc(O)cc(-c3ncc4c(N5CCC[C@@](C)(O)C5)nc(OC[C@]56CCCN5[C@@H](COc5cnc(-c7cn([C@H](C(=O)N8C[C@H](O)C[C@H]8C(=O)N[C@@H](C)c8ccc(-c9scnc9C)cc8)C(C)C)nn7)cn5)CC6)nc4c3F)c12 [Compound 159] | 6.2 nM | – | 2.3 nM | 95% | – | – | – | –
21 | CCc1c(F)ccc2cc(O)cc(-c3ncc4c(N5CCC[C@@](C)(O)C5)nc(OCC5(CN6CCC(c7ccc(-c8cn([C@H](C(=O)N9C[C@H](O)C[C@H]9C(=O)N[C@@H](C)c9ccc(-c%10scnc%10C)cc9)C(C)C)nn8)cn7)CC6)CC5)nc4c3F)c12 [Compound 203] | 11 nM | 47 nM | 14 nM | 95% | – | – | – | –
